From US10570117B2, “Phenylimidazole compound” (Otsuka Pharmaceutical Factory, Inc., priority 2015, dated 2020)
In brackets after ≈: the same amount, converted by molar mass. Read-outs that look alike come from different tables or passages of the source.

How the values were obtained:
[1] = Solubility in gastric juice or intestinal juice model fluid (precipitation method using DMSO); assay type: physicochemical; details: room temperature
Protocol: Solubility in Gastric Juice or Intestinal Juice Model Fluid
Measurement was performed by a precipitation method using DMSO. Specifically, each of the dimethyl sulfoxide (DMSO) solutions of the compounds was individually added to 1st fluid for Disintegration Test of Japanese Pharmacopoeia (pH: 1.2) or 2nd fluid for Disintegration Test of Japanese Pharmacopoeia (pH: 6.8), and the mixtures were stirred by shaking at room temperature for 24 hours. Subsequently, insoluble substances in each mixture were removed by filtration, and the UV absorption of each filtrate was measured. The obtained values were individually applied to the calibration curves of the compounds prepared in advance to calculate the concentrations of the compounds dissolved (μg/mL).

[2] = pH 1.2, simulated gastric fluid, kinetic from dmso stock, 1st fluid for Disintegration Test of Japanese Pharmacopoeia (pH: 1.2), read-out: Solubility (μg/mL) 1st fluid
[3] = pH 6.8, kinetic from dmso stock, 2nd fluid for Disintegration Test of Japanese Pharmacopoeia (pH: 6.8), read-out: Solubility (μg/mL) 2nd fluid
[4] = 2nd fluid for Disintegration Test of Japanese Pharmacopoeia (pH: 6.8), 24 hours

Compound | solubility at 24 h [1, 2] | solubility at 24 h [1, 3] | melting point | also measured
COc1cc(OCc2ccc(C(F)(F)F)nc2)ccc1-c1c[nH]c(-c2ccc(Cl)nc2)n1 [Example 54] | – | – | 218 to 220 °C | –
COc1cc(-c2cnc(C3CCC(F)(F)C3)[nH]2)ccc1OCc1ccc(C(F)(F)F)cn1 (centres unmarked) [Example 10] | 89.5 µg/mL (≈ 197 µM) | 17.3 µg/mL (≈ 38.2 µM) | – | –
COc1cc(O[C@@H](C)c2ccc(C(F)(F)F)nc2)ccc1-c1[nH]c(-c2ccc(F)nc2)nc1Cl [Example 291] | 9.9 µg/mL (≈ 20.1 µM) | 3.5 µg/mL (≈ 7.1 µM) | 74 to 97 °C | –
COc1cc(OCc2cnc(Cl)cn2)ccc1-c1nc(-c2ccc(Cl)nc2)[nH]c1Cl [Example 215] | – | – | 232 to 234 °C | –
COc1cc(OCc2ccc(C(F)(F)F)cn2)ccc1-c1c[nH]c(-c2ccc(C(F)(F)F)nc2)n1 [Example 96] | – | – | 209 to 211 °C | –
COc1cc(-c2cnc(C3CCCC(F)(F)C3)[nH]2)ccc1OCc1ccc(C(F)(F)F)cn1 (centres unmarked) [Example 5] | 90.1 µg/mL (≈ 193 µM) | 1.1 µg/mL (≈ 2.35 µM) | – | –
COc1cc(-c2[nH]c(-c3ccc(F)nc3)nc2Cl)ccc1OCc1ccc(C(F)(F)F)nc1 [Example 177] | – | – | 202 to 204 °C | –
COc1ccc(-c2nc(-c3ccc(OCc4ccc(C(F)(F)F)cn4)c(OC)c3)c[nH]2)cn1 [Example 70] | – | – | 217 to 218 °C (dec.) | –
COc1cc(-c2c[nH]c(-c3ccc(Cl)nc3)n2)ccc1OCc1ccc(C(F)(F)F)nc1 [Example 52] | – | – | 179 to 181 °C | –
COc1cc(-c2nc(-c3ccc(Cl)nc3)[nH]c2C)ccc1OCc1ccc(C(F)(F)F)nc1 [Example 28] | – | – | 209 to 211 °C | –
COc1cc(OCc2cc(C(F)(F)F)ccn2)ccc1-c1[nH]c(-c2ccc(Cl)nc2)nc1Cl [Example 174] | – | – | 176 to 178 °C | –
COc1cc(OCc2ccc(C#N)cn2)ccc1-c1c[nH]c(-c2ccc(Cl)nc2)n1 [Example 35] | – | – | 233 to 237 °C (dec.) | –
COc1cc(OCc2cccc(C(F)(F)F)n2)ccc1-c1[nH]c(-c2ccc(Cl)nc2)nc1Cl [Example 282] | – | – | 190 to 193 °C | –
COc1cc(OCc2cccc(C#N)n2)ccc1-c1[nH]c(C2CCC(F)(F)CC2)nc1Cl [Example 186] | 23.2 µg/mL (≈ 50.6 µM) | < 0.3 µg/mL | – | –
COc1cc(OCc2ccc(C(F)(F)F)cn2)ccc1-c1cnc(C2CC(F)(F)C2)[nH]1 [Example 9] | 87.7 µg/mL (≈ 200 µM) | 1.8 µg/mL (≈ 4.1 µM) | – | –
COc1cc(-c2c[nH]c(-c3ccc(F)nc3)n2)ccc1OCc1ccc(C(F)(F)F)cn1 [Example 125] | 23.1 µg/mL (≈ 52 µM) | 0.5 µg/mL (≈ 1.13 µM) | – | –
COc1cc(OCc2ccc(C(F)(F)F)cn2)ccc1-c1c[nH]c(-c2ccc(SC(C)(C)C)cn2)n1 [Example 59] | – | – | 159 to 160 °C | –
COc1cc(OCc2ccc(C(F)(F)F)cn2)ccc1-c1nc(-c2ccc(Cl)cn2)[nH]c1Cl [Example 232] | – | – | 197 to 199 °C (dec.) | –
COc1cc(-c2cnc(C3CC(F)(F)C3)[nH]2)ccc1OCc1ccc(C(F)(F)F)nc1 [Example 2] | > 88 µg/mL | 25.1 µg/mL (≈ 57.1 µM) | – | –
COc1cc(OCc2ccc(C(F)(F)F)nc2)ccc1-c1c(Cl)nc(-c2ccc(Cl)nc2)n1C [Example 307] | – | – | 149 to 151 °C | –
COc1cc(-c2c[nH]c(C3CCCCC3)n2)ccc1OCc1ccc(C(F)(F)F)nc1 [Example 51] | 90.2 µg/mL (≈ 209 µM) | 9 µg/mL (≈ 20.9 µM) | – | –
COc1cc(OCc2ccc(C(F)(F)F)cn2)ccc1-c1nc(-c2ccc(F)cn2)[nH]c1Cl [Example 231] | – | – | 222 to 224 °C (dec.) | –
COc1cc(-c2cnc(C3CC(F)(F)C3)[nH]2)ccc1OCc1ccc(C(F)(F)F)cn1 [Example 11] | 80.1 µg/mL (≈ 182 µM) | 5.4 µg/mL (≈ 12.3 µM) | – | –
COc1cc(OCc2cnccn2)ccc1-c1c[nH]c(-c2ccc(Cl)nc2)n1 [Example 50] | – | – | 210 to 213 °C (dec.) | –
COc1cc(O[C@H](C)c2ccc(C(F)(F)F)nc2)ccc1-c1cnc(-c2ccc(F)nc2)[nH]1 [Example 149] | – | – | – | Solubility (μg/mL) 1st fluid ([1]; 1st fluid for Disintegration Test of Japanese Pharmacopoeia (pH: 1.2), 24 hours): 19.6 µg/mL (≈ 42.8 µM); Solubility (μg/mL) 2nd fluid [1, 4]: 3.9 µg/mL (≈ 8.51 µM)

The next lines start with results.

solubility at 24 h [1, 2] | solubility at 24 h [1, 3] | melting point | Compound | also measured
2.4 µg/mL (≈ 5.32 µM) | 0.3 µg/mL (≈ 0.665 µM) | 241 to 244 °C (dec.) | COc1cc(OCc2ccc(C(F)(F)F)cn2)ccc1-c1cnc(-c2ccc(C#N)nc2)[nH]1 [Example 150, 5-[5-[2-methoxy-4-((5-(trifluoromethyl)pyridin-2-yl)methoxy)phenyl]-1H-imidazol-2-yl]picolinonitrile] | –
> 92 µg/mL | 0.9 µg/mL (≈ 1.96 µM) | 168 to 171 °C | COc1cc(OCc2ccc(C(F)(F)F)cn2)ccc1-c1cn(C)c(-c2ccc(F)nc2)n1 [Example 151, 2-fluoro-5-[4-[2-methoxy-4-((5-(trifluoromethyl)pyridin-2-yl)methoxy)phenyl]-1-methyl-1H-imidazol-2-yl]pyridine] | –
13.6 µg/mL (≈ 28.5 µM) | < 0.3 µg/mL | – | COc1cc(OC(C)c2ncc(C(F)(F)F)cc2F)ccc1-c1cnc(-c2ccc(F)nc2)[nH]1 (centres unmarked) [Example 129] | –
– | – | 172 to 175 °C | COc1cc(OCc2ncc(Cl)cc2F)ccc1-c1[nH]c(-c2ccc(F)nc2)nc1Cl [Example 283] | –
– | – | 183 to 185 °C | COc1cc(OCc2ccc(Br)cc2F)ccc1-c1c[nH]c(-c2ccc(C(F)(F)F)nc2)n1 [Example 99] | –
– | – | 183 to 185 °C | COc1cc(OCc2ccc(Br)cc2F)ccc1-c1[nH]c(-c2ccc(F)nc2)nc1Cl [Example 284] | –
– | – | 181 to 184 °C | CCOc1ccc(-c2nc(-c3ccc(OCc4ccc(Br)cc4F)cc3OC)c[nH]2)cn1 [Example 84] | –
– | – | 231 to 233 °C (dec.) | COc1cc(OCc2cnc(Cl)cn2)ccc1-c1nc(-c2ccc(F)nc2)[nH]c1Cl [Example 217] | –
– | – | 174 to 179 °C | COc1cc(OCc2ncc(Br)cc2F)ccc1-c1[nH]c(-c2ccc(Cl)nc2)nc1Br [Example 250] | –
– | – | 195 to 199 °C | COc1cc(OCc2cccnc2C(F)(F)F)ccc1-c1[nH]c(-c2ccc(Cl)nc2)nc1Cl [Example 243] | –
9.9 µg/mL (≈ 21.6 µM) | – | – | COc1cc(O[C@H](C)c2ccc(C(F)(F)F)nc2)ccc1-c1cnc(-c2ccc(F)nc2)[nH]1 [Example 146] | Solubility (μg/mL) 2nd fluid [1, 4]: 1.2 µg/mL (≈ 2.62 µM)
– | – | 179 to 181 °C | COc1cc(OCc2cc(C(F)(F)F)ccn2)ccc1-c1[nH]c(-c2ccc(F)nc2)nc1Br [Example 269] | –
– | – | 219 to 222 °C | COc1cc(OCc2ccc(Br)cc2F)ccc1-c1c[nH]c(-c2ccccn2)n1 [Example 90] | –
– | – | 194 to 196 °C | COc1cc(OCc2ccc(C(F)(F)F)nc2)ccc1-c1[nH]c(-c2ccc(F)nc2)nc1F [Example 320] | –
> 57 µg/mL | > 57 µg/mL | – | COc1cc(-c2cnc(-c3ccc(F)nc3)[nH]2)ccc1O [Example 110, 4-[2-(6-fluoropyridin-3-yl)-1H-imidazol-5-yl]-2-methoxyphenol] | –
12.4 µg/mL (≈ 27 µM) | 3.6 µg/mL (≈ 7.85 µM) | – | COc1cc(O[C@@H](C)c2ccc(C(F)(F)F)nc2)ccc1-c1cnc(-c2ccc(F)nc2)[nH]1 [Example 147] | –

solubility at 24 h [1, 2] | solubility at 24 h [1, 3] | melting point | Compound | also measured
17.1 µg/mL (≈ 37.3 µM) | < 0.3 µg/mL | – | COc1cc(OC(C)c2cccc(C(F)(F)F)n2)ccc1-c1cnc(-c2ccc(F)nc2)[nH]1 (centres unmarked) [Example 127] | –
– | – | 133 to 153 °C | COc1cc(OCc2cnccc2C(F)(F)F)ccc1-c1[nH]c(-c2ccc(F)nc2)nc1Cl [Example 257] | –
< 0.3 µg/mL | 5.3 µg/mL (≈ 11.6 µM) | – | COc1cc(O[C@H](C)c2ccc(C(F)(F)F)cc2)ccc1-c1cnc(-c2ccc(F)nc2)[nH]1 [Example 148] | –
– | – | 185 to 187 °C | COc1cc(OCc2cc(C(F)(F)F)ccn2)ccc1-c1[nH]c(-c2ccc(F)nc2)nc1Cl [Example 173] | –
21.1 µg/mL (≈ 47.5 µM) | 0.5 µg/mL (≈ 1.13 µM) | – | COc1cc(OCc2cccc(C(F)(F)F)n2)ccc1-c1cnc(-c2ccc(F)nc2)[nH]1 [Example 113] | –
– | – | 177 to 180 °C | COc1cc(OCc2ccc(Br)cc2F)ccc1-c1cnc(-c2ccc(F)nc2)[nH]1 [Example 144] | –
– | – | 220 to 222 °C | COc1cc(OCc2ccc(Br)cc2F)ccc1-c1c[nH]c(-c2ccc(Cl)nc2)n1 [Example 92] | –
– | – | 163 to 166 °C | COc1cc(OCc2ccc(Cl)cc2F)ccc1-c1[nH]c(-c2ccc(F)nc2)nc1Cl [Example 286] | –
– | – | 236 to 238 °C | COc1cc(OCc2ccnc(C(F)(F)F)c2)ccc1-c1[nH]c(-c2ccc(F)nc2)nc1Cl [Example 272] | –
< 0.3 µg/mL | 4 µg/mL (≈ 8.74 µM) | – | COc1cc(O[C@@H](C)c2ccc(C(F)(F)F)cc2)ccc1-c1cnc(-c2ccc(F)nc2)[nH]1 [Example 145] | –
– | – | 173 to 177 °C | COc1cc(OCc2ccc(F)cc2F)ccc1-c1[nH]c(-c2ccc(Cl)nc2)nc1Cl [Example 244] | –
– | – | 189 to 191 °C | COc1cc(OCc2ncc(Br)cc2F)ccc1-c1[nH]c(-c2ccc(Cl)nc2)nc1Cl [Example 251] | –
– | – | 175 to 177 °C | COc1cc(-c2c[nH]c(-c3ccc(C(F)(F)F)nc3)n2)ccc1OCc1ccc(Br)cc1F [Example 95] | –
– | – | 213 to 218 °C | COc1cc(OCc2ccc(F)cc2F)ccc1-c1cnc(-c2ccc(Cl)nc2)[nH]1 [Example 101] | –
– | – | 72 to 105 °C | COc1cc(OC(C)c2ccc(C(F)(F)F)nc2)ccc1-c1cnc(-c2ccc(F)nc2)[nH]1 (centres unmarked) [Example 130] | –
– | – | 178 to 180 °C | COc1cc(OCc2ccc(Cl)cc2F)ccc1-c1cnc(-c2ccc(F)nc2)[nH]1 [Example 143] | –
